Assay results taken from ChEMBL document CHEMBL4725469, “Hydrogen Peroxide Inducible JAK3 Covalent Inhibitor: Prodrug for the Treatment of RA with Enhanced Safety Profile” (ACS Med Chem Lett, 2020).
Activity calls are given as the source filed them. The rule behind the calls is not given here.

Columns and labels:
[1] = Apparent volume of distribution in Sprague-Dawley rat at 20 mg/kg, ip measured for 0.8 to 24 hrs by LC-MS/MS analysis; assay type: ADME, organism-based; settings: in vivo, time 0.8-24 hrs
[2] = Cmax in Sprague-Dawley rat at 20 mg/kg, ip measured for 0.8 to 24 hrs by LC-MS/MS analysis; assay type: ADME, organism-based; set-up: route intraperitoneal, dose 20 mg/kg, time 0.8-24; settings: in vivo
[3] = AUC in Sprague-Dawley rat at 20 mg/kg, ip measured for 0.8 to 24 hrs by LC-MS/MS analysis; assay type: ADME, organism-based; set-up: route intraperitoneal, dose 20 mg/kg, time 0.8-24; settings: in vivo
[4] = Dissociation constant, pKa of the compound; assay type: physicochemical
[5] = Apparent clearance in Sprague-Dawley rat at 20 mg/kg, ip measured for 0.8 to 24 hrs by LC-MS/MS analysis; assay type: ADME, organism-based; settings: in vivo, time 0.8-24 hrs
[6] = Toxicity in ICR mouse assessed as effect on body weight at 100 mg/kg, ip administered for 14 days; assay type: organism-based; settings: in vivo, 336 h, time 14 day
[7] = Drug level in ankle joint of collagen/complete freund's adjuvant-induced rheumatoid arthritis DBA/1J mouse model at 20 mg/kg, ip by LC-MS/MS analysis; assay type: ADME, organism-based; settings: in vivo, read-out: Ct
[8] = Aqueous solubility of compound at pH 7.4; assay type: physicochemical; settings: buffer
[9] = Toxicity in ICR mouse assessed as inflammatory inflammation in heart at 100 mg/kg, ip administered for 14 days; assay type: organism-based; settings: in vivo, 336 h, time 14 day
Mus musculus [10] = assay: Antiarthritic activity in collagen/complete freund's adjuvant-induced rheumatoid arthritis DBA/1J mouse model assessed as inhibition of feet swelling at 10 mg/kg, ip administered for 14 days by H and E staining based analysis; assay type: functional, organism-based; settings: time 14.0 day
[11] = Tmax in Sprague-Dawley rat at 20 mg/kg, ip measured for 0.8 to 24 hrs by LC-MS/MS analysis; assay type: ADME, organism-based; settings: in vivo, time 0.8-24 hrs
[12] = Permeability of compound at pH 7.4 by PAMPA assay; assay type: ADME; settings: read-out: permeability
[13] = Half life in Sprague-Dawley rat at 20 mg/kg, ip measured for 0.8 to 24 hrs by LC-MS/MS analysis; assay type: ADME, organism-based; settings: in vivo, time 0.8-24 hrs
[14] = molecular target: T1, Tyrosine-protein kinase JAK3 (Mus musculus) (UniProt Q62137); assay: Inhibition of JAK3 in mouse BaF3/TEL-JAK3 cells assessed as effect on STAT3 phosphorylation at 0.125 to 2 uM by Western blot analysis; assay type: cell-based; settings: dose microM 0.125-2
T1 sequence (whole entry): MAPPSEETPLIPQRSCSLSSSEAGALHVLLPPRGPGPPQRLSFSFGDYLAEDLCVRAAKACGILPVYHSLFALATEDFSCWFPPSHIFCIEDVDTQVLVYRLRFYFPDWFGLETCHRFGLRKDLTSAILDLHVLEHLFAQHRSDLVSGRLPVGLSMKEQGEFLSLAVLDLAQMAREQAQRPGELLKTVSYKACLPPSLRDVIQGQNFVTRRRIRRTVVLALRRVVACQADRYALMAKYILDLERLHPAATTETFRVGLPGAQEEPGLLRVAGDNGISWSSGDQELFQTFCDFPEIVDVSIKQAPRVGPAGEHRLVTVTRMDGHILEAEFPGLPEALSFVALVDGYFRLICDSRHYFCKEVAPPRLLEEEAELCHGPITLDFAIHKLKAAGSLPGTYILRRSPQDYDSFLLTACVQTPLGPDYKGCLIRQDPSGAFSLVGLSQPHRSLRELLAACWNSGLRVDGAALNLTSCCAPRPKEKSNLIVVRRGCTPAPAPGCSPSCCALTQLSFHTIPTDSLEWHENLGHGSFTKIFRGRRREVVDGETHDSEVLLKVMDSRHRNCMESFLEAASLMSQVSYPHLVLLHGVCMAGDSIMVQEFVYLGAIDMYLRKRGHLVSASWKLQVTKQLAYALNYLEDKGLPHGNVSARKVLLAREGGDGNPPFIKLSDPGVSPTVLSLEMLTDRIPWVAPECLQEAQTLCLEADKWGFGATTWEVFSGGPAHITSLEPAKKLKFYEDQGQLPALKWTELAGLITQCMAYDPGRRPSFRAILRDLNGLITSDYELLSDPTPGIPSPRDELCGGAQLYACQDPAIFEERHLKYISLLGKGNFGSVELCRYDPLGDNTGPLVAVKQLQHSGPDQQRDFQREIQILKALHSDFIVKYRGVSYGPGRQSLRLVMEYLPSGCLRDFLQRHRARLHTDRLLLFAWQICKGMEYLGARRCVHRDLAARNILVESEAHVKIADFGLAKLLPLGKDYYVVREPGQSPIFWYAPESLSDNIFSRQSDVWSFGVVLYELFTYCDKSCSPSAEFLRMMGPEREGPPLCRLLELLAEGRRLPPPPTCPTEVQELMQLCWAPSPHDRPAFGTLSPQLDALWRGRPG

[15] = Toxicity in ICR mouse assessed as inflammatory inflammation in lungs at 100 mg/kg, ip administered for 14 days; assay type: organism-based; settings: in vivo, 336 h, time 14 day
[16] = MRT (0 to infinity) in Sprague-Dawley rat at 20 mg/kg, ip measured for 0.8 to 24 hrs by LC-MS/MS analysis; assay type: ADME, organism-based; settings: in vivo, time 0.8-24 hrs
[17] = Toxicity in ICR mouse assessed as increase in liver weight at 100 mg/kg, ip administered for 14 days; assay type: organism-based; settings: in vivo, 336 h, time 14 day
[18] = molecular target: T1, Tyrosine-protein kinase JAK3 (Mus musculus); assay: Inhibition of JAK3 in mouse BaF3/TEL-JAK3 cells assessed as effect on STAT5 phosphorylation at 0.125 to 2 uM by Western blot analysis; assay type: cell-based; settings: dose microM 0.125-2
[19] = Toxicity in ICR mouse assessed as increase in spleen weight at 100 mg/kg, ip administered for 14 days; assay type: organism-based; settings: in vivo, 336 h, time 14 day
Mus musculus [20] = assay: Antiarthritic activity in DBA/1J mouse model assessed as effect on collagen/complete freund's adjuvant-induced eroded synovial cells in ankle joints at 20 mg/kg, ip administered for 14 days by H and E staining analysis; assay type: functional, organism-based; settings: time 14.0 day
Mus musculus [21] = assay: In vivo inhibition of JAK3 in collagen/complete freund's adjuvant-induced rheumatoid arthritis DBA/1J mouse model assessed as effect on STAT5 phosphorylation in heart at 20 mg/kg, ip administered for 14 days by Western blot analysis; assay type: functional, organism-based; settings: time 14.0 day
Mus musculus [22] = assay: Antiarthritic activity in ip dosed collagen/complete freund's adjuvant-induced rheumatoid arthritis DBA/1J mouse model assessed as reduction in IL-2 level in serum administered for 14 days by ELISA; assay type: functional, organism-based; settings: dose mg/kg 5-20, time 14.0 day
[23] = Stability in human plasma at 20 uM after 0.25 to 24 hrs by RP-UPLC-UV analysis; assay type: ADME, cell-free; settings: time 0.25-24 hrs, read-out: Stabilty
[24] = Stability in simulated intestinal fluid incubated for 0.25 to 24 hrs by RP-UPLC-UV analysis
Mus musculus [25] = assay: Antiarthritic activity in ip dosed collagen/complete freund's adjuvant-induced rheumatoid arthritis DBA/1J mouse model assessed as inhibition of feet swelling administered for 14 days by H and E staining based analysis; assay type: functional, organism-based; settings: dose mg/kg 5-20, time 14.0 day
[26] = Stability in phosphate buffer saline at pH 7.4 after 0.25 to 24 hrs by RP-UPLC-UV analysis; assay type: physicochemical; settings: time 0.25-24 hrs
Mus musculus [27] = assay: Antiarthritic activity in ip dosed collagen/complete freund's adjuvant-induced rheumatoid arthritis DBA/1J mouse model assessed as reduction in serum amyloid A level administered for 14 days by ELISA; assay type: functional, organism-based; settings: dose mg/kg 5-20, time 14.0 day
[28] = Prodrug activation in collagen/complete freund's adjuvant-induced rheumatoid arthritis DBA/1J mouse model assessed as Z)-2-((5-(1-cyclohexyl-1,6-dihydroimidazo[4,5-d]pyrrolo[2,3-b]pyridin-2-yl)furan-2-yl)(hydroxy)methyl)-3-(dimethylamino)-3-((4-(4,4,5,5-tetramethyl-1,3,2-dioxaborolan-2-yl)benzyl)oxy)acrylonitrile level in ankle joint at […], ip by LC-MS/MS analysis; assay type: organism-based; settings: in vivo, 20 mg/kg, read-out: Ct
Mus musculus [29] = assay: In vivo inhibition of JAK3 in collagen/complete freund's adjuvant-induced rheumatoid arthritis DBA/1J mouse model assessed as effect on STAT5 phosphorylation in kidney at 20 mg/kg, ip administered for 14 days by Western blot analysis; assay type: functional, organism-based; settings: time 14.0 day
Mus musculus [30] = assay: Antiarthritic activity in DBA/1J mouse model assessed as effect on collagen/complete freund's adjuvant-induced synovial hyperplasia at 20 mg/kg, ip administered for 14 days by H and E staining analysis; assay type: functional, organism-based; settings: time 14.0 day
[31] = Stability in simulated gastric fluid measured after 0.25 to 24 hrs by RP-UPLC-UV analysis
Mus musculus [32] = assay: In vivo inhibition of JAK3 in collagen/complete freund's adjuvant-induced rheumatoid arthritis DBA/1J mouse model assessed as effect on STAT5 phosphorylation in spleen at 20 mg/kg, ip administered for 14 days by Western blot analysis; assay type: functional, organism-based; settings: time 14.0 day
Mus musculus [33] = assay: Antiarthritic activity in collagen/complete freund's adjuvant-induced rheumatoid arthritis DBA/1J mouse model assessed as inhibition of feet swelling at 20 mg/kg, ip administered for 14 days by H and E staining based analysis; assay type: functional, organism-based; settings: time 14.0 day
[34] = Stability in mouse plasma at 20 uM after 0.25 to 24 hrs by RP-UPLC-UV analysis; assay type: ADME, cell-free; settings: time 0.25-24 hrs, read-out: Stabilty
Mus musculus [35] = assay: In vivo inhibition of JAK3 in collagen/complete freund's adjuvant-induced rheumatoid arthritis DBA/1J mouse model assessed as effect on STAT5 phosphorylation in liver at 20 mg/kg, ip administered for 14 days by Western blot analysis; assay type: functional, organism-based; settings: time 14.0 day
Mus musculus [36] = assay: Antiarthritic activity in DBA/1J mouse model assessed as effect on collagen/complete freund's adjuvant-induced disordered synovial cells in ankle joints at 20 mg/kg, ip administered for 14 days by H and E staining analysis; assay type: functional, organism-based; settings: time 14.0 day
Mus musculus [37] = assay: Antiarthritic activity in ip dosed collagen/complete freund's adjuvant-induced rheumatoid arthritis DBA/1J mouse model assessed as reduction in G-CSF level in serum administered for 14 days by ELISA; assay type: functional, organism-based; settings: dose mg/kg 5-20, time 14.0 day
Mus musculus [38] = assay: In vivo inhibition of JAK3 in collagen/complete freund's adjuvant-induced rheumatoid arthritis DBA/1J mouse model assessed as effect on STAT5 phosphorylation in lung at 20 mg/kg, ip administered for 14 days by Western blot analysis; assay type: functional, organism-based; settings: time 14.0 day
[39] = Prodrug activation in DMSO assessed as H2O2 mediated prodrug release after 4 hrs in presence of 0.1 uM H2O2 after 4 hrs by RP-HPLC-UV analysis

| Structure (SMILES) | Vz [1] [L/kg] | Cmax [2] [ng/mL] | AUC [3] [µg·h/mL] | pKa [4] | CL(app) [5] [mL/min/kg] | Activity [6] | concentration [7] [nM] | solubility [8] [mg/kg] | Tmax [11] [h] | Papp [12] [×10⁻⁶ cm/s] | t1/2 [13] [h] | inhibition [14] | MRT inf [16] [h] | Activity [17] | inhibition [18] | Activity [19] | further results |
| --- | --- | --- | --- | --- | --- | --- | --- | --- | --- | --- | --- | --- | --- | --- | --- | --- | --- |
| CN(C)C(=O)/C(C#N)=C/c1ccc(-c2nc3cnc4[nH]ccc4c3n2C2CCCCC2)o1 | 27.96 | 455.37 | 331.91 | 10.1 | 100 | Toxic | 1070 | 0.719 | 0.17 | 14.7 | 2.36 | Active | 3.84 | Toxic | Active | Toxic | Activity [9]: Toxic; inhibition (Mus musculus [10]): Active; Activity [15]: Toxic |
| CN(C)/C(OCc1ccc(B2OC(C)(C)C(C)(C)O2)cc1)=C(\C#N)C(O)c1ccc(-c2nc3cnc4[nH]ccc4c3n2C2CCCCC2)o1 (stereo not given) | 8.7 | 983.33 | 963.5 | 10.7 | 35 | Non-Toxic | 290 | 0.011 | 0.25 | 56.4 | 2.92 | Active | 2.38 | Non-Toxic | Active | Non-Toxic | Activity (Mus musculus [20]): Active; inhibition (Mus musculus [21]): inactive; Activity (Mus musculus [22]): Active; remaining at 20 µM [23]: > 95%; Stability [24]: > 95%; inhibition (Mus musculus [25]): Dose-dependent effect; Stabilty [26]: > 95%; Activity (Mus musculus [27]): Active; concentration [28]: 1130 nM; inhibition (Mus musculus [29]): inactive; Activity (Mus musculus [30]): Active; Stability [31]: > 95%; inhibition (Mus musculus [32]): inactive; inhibition (Mus musculus [33]): Active; remaining at 20 µM [34]: > 95%; inhibition (Mus musculus [35]): inactive; Activity (Mus musculus [36]): Active; Activity (Mus musculus [37]): Active; inhibition (Mus musculus [38]): inactive; Drug metabolism [39]: Not Active |
